# Data as given in paper PMC8399847, “Hybrid Quinolinyl Phosphonates as Heterocyclic Carboxylate Isosteres: Synthesis and Biological Evaluation against Topoisomerase 1B (TOP1B)” (Pharmaceuticals, 2021).
# Legend:
# [1] = test system: A549 (human lung adenocarcinoma cells); assay: CCK-8 cytotoxicity assay, A549; type: cell-based; conditions: A549, 48 h, read-out: Cytotoxicity IC50 Lung A549
# Protocol: (§1) The cytotoxicity of the newly synthesized quinolinylphosphonates 7 was evaluated in vitro by testing their antiproliferative activities against several human cancer cell lines: A549 (human lung adenocarcinoma cells), SKOV3 (human ovarian carcinoma), and HEK293 (human embryonic kidney). In order to analyze the selective cytotoxicity facing exclusively cancerous cell lines, cytotoxicity against non-cancerous cell lines (MRC-5, lung fibroblast cells) was also evaluated. Cell counting kit (CCK-8) assay was employed to assess growth inhibition and, cell proliferation inhibitory activities of compounds that are listed in Table 1 as IC50 values. […] According to the data presented in Table 1, in general, all these phosphorated derivatives present higher selective cytotoxicity in the A549 cell line than in the other two cell lines, SKOV3 and HEK293, although slight differences are observed compared to human ovarian carcinoma (SKOV3).
# (§2) Cells were cultured according to the supplier’s instructions, A549 (ATCC® CCL-185), SKOV3 (ATCC® HTB-77), HEK293 (CLS GmbH), MRC-5 (ATCC® CCL-171™). Cells were seeded in 96-well plates at a density of 2–2.5 × 10^3 cells per well and incubated overnight in 0.1 mL of media supplied with 10% Fetal Bovine Serum (Lonza, Basel, Switzerland) in a 5% CO2 incubator at 37 °C. On day 2, drugs (concentration between 0.5–50 μM) were added and samples were incubated for 48 h. After treatment, 10 μL of cell counting kit-8 was added to each well for an additional 2 h incubation at 37 °C. The absorbance of each well was determined by an Automatic Elisa Reader System at 450 nm wavelength. CPT was purchased from Sigma-Aldrich and used as a positive control.
# [2] = test system: SKOV3 (human ovarian carcinoma); assay: CCK-8 cytotoxicity assay, SKOV3; type: cell-based; conditions: SK-OV-3, 48 h, read-out: Cytotoxicity IC50 Ovarian SKOV3
# Protocol: as §1, §2
# [3] = test system: HEK293 (human embryonic kidney); assay: CCK-8 cytotoxicity assay, HEK293; type: cell-based; conditions: HEK293, 48 h, CCK-8, 50% growth inhibition
# Protocol: as §1, §2
# [4] = CCK-8 cytotoxicity assay, MRC-5 non-cancerous cells; type: cell-based; conditions: human, MRC-5 non-malignant lung fibroblasts
# Protocol: as §1, §2
# [5] = test system: L. infantum promastigotes; assay: In vitro iRFP-L. infantum promastigotes viability assay; type: cell-based; conditions: Leishmania infantum; 96 h exposure, EC50 ± SD
# Protocol: (§3) The effect of the new quinolinylphosphonate derivatives 7 synthesized was assessed on both free-living promastigotes and intramacrophage amastigotes of L. infantum as it is described in experimental protocols. Primary cultures of intramacrophage amastigotes were obtained from splenic explants from 6-weeks infected Balb/c mice with L. infantum-iRFP promastigotes. The infrared fluorescence emitted by both stage forms of the parasite was used as viability criterium, using 0.5% DMSO as negative control (100% viability) and […] AMB as a positive control (0% viability).
# A genetically modified strain of L infantum BCN 150, expressing iRFP protein from Rhodopseudomonas palustris bacteriophytochrome (iRFP-L. infantum), was used to obtain the EC50 values of the different compounds against promastigotes, through the detection of the near-infrared radiation emitted by living parasites exposed to tested molecules. Thus, the viability of promastigotes was calculated after recording their fluorescence at 708 nm in an Odyssey (Li-Cor, NE, USA) infrared imaging.
# iRFP-L. infantum promastigotes were cultured using M199 medium (Gibco, Thermo Fisher Scientific, MA, USA), supplemented with 25 mM 4-(2-hydroxyethyl)-1-piperazineethanesulfonic acid (HEPES) pH 6.9, […] hemin, 10 mM glutamine, 0.1 mM adenosine, 0.01 mM folic acid, 1× RPMI 1640 vitamin mix (Sigma, Darmstadt, Germany), 10% (v/v) heat-inactivated foetal bovine serum (Gibco, Thermo Fisher Scientific, MA, USA), 50 U/mL penicillin and 50 µg/mL streptomycin. The assay was carried out, seeding 1 × 10^6 cells/mL of iRFP-L. infantum promastigotes into 96-well optical bottom black plates (Thermo Scientific, MA, USA) along with different concentrations of compound to each well. The final concentration of DMSO, the solvent used to prepare the stock solutions of compounds, was never higher than 0.1%. All of the compounds’ concentrations and controls were assayed by triplicate.
# L. infantum amastigotes = assay: Ex vivo murine splenic explant culture, intramacrophage amastigotes; type: cell-based; conditions: Leishmania infantum, Hec50; intramacrophage amastigotes in splenic explants, 96 h, EC50 ± SD
# Protocol: as §3
# The EC50 values of compounds against the amastigote forms were calculated using a cell suspension obtained from spleens extracted from BALB/c mice. Mice had been infected previously with iRFP L. infantum metacyclic promastigotes and sacrificed five weeks after infection. To obtain the cell suspension containing amastigotes, spleens washed with cold phosphate-buffered saline (PBS), were cut into pieces, and incubated with 5 mL of 2 mg/mL collagenase D (Sigma, Darmstadt, Germany), which was prepared in buffer (10 mM HEPES, pH 7.4, 150 mM NaCl, 5 mM KCl, 1 mM MgCl2 and 1.8 mM CaCl2) for 20 min. Subsequently, these cells were passed through a 100 µm cell strainer, collected by centrifugation (500× g for 7 min at 4 °C), washed twice with PBS, and suspended in RPMI medium (Gibco, Thermo Fisher Scientific, MA, USA) supplemented with 10 mM HEPES, 1 mM sodium pyruvate, 1xRPMI 1640 vitamin mix, 10% (v/v) FBS, 50 U/mL penicillin and 50 µg/mL streptomycin, at 37 °C under a 5% CO2 atmosphere.
# To assay the effect of the different compounds against amastigotes, which infect splenic cells, these cells were seeded to confluence into 384-well black optical bottom plates (Thermo Scientific, Waltham, MA, USA) in addition to different concentrations of compound to each well. The viability of amastigotes was calculated by recording their fluorescence at 708 nm in an Odyssey (Li-Cor, NE, USA) infrared imaging system, after 96 h of exposure. Plots of the infrared fluorescence against the concentrations of tested compounds were fitted by nonlinear analysis using the Sigma Plot 10.1 statistical package and used to calculate EC50 values. As well as promastigotes viability, the assays were performed in triplicate.
# murine splenocytes = assay: Splenocyte viability, Alamar Blue; type: cell-based, BALB/c mice; conditions: for IC50: Mus musculus, Splenocyte, read-out: IC50 Splenocites; for SI (selectivity index): ratio IC50 splenic cells / EC50 amastigotes
# Protocol: The viability of splenocytes cells against the different compounds was measured using the Alamar Blue staining method (Invitrogen, MA, USA). For this purpose, these cells were obtained following the protocol indicated in the previous section, from uninfected mice. Plots of absorbance of viable cells (obtained following manufacturer’s recommendations of Alamar Blue) vs compounds concentration were used to calculate CC50 values. Plots were fitted by nonlinear analysis using the Sigma Plot 10.1 statistical package. The assays were performed by triplicate.
# The selectivity index for each compound was calculated as the ratio between the IC50 value for splenic cells and the EC50 value for amastigotes.
Structure (SMILES),IC50 [1] [µM],IC50 [2] [µM],IC50 [3] [µM],IC50 at 48 h [4] [µM],EC50 [5] [µM],EC50 (L. infantum amastigotes) [µM],IC50 (murine splenocytes) [µM],SI (selectivity index) (murine splenocytes),melting point [°C]
"CCOP(=O)(OCC)c1cccc2c(-c3ccccc3)cc(-c3ccccc3)nc12 [7a, Diethyl (2,4-diphenylquinolin-8-yl)phosphonate]",2.26 ± 0.59,9.3 ± 0.76,27.3 ± 2.22,> 50,0.91 ± 0.04,4.03 ± 0.3,3.61 ± 0.45,0.9,118 to 120
"CCOP(=O)(OCC)c1cccc2c(-c3ccccc3)cc(-c3ccc(F)cc3)nc12 [7b, Diethyl (4-Phenyl-2-(fluorophenyl)quinolin-8-il) phosphonate]",2.16 ± 0.29,5.29 ± 1.42,43 ± 4.65,> 50,7.63 ± 0.76,14.6 ± 1.3,12.2 ± 1.77,0.8,116 to 118
"CCOP(=O)(OCC)c1cccc2c(-c3ccccc3)cc(-c3ccc(OC)cc3)nc12 [7c, Diethyl (2-(4-methoxyphenyl)-4-phenylquinolin-8-yl)phosphonate]",12.6 ± 1.3,25 ± 3.6,38.3 ± 8.9,> 50,9.46 ± 1.67,8.23 ± 1.7,15.9 ± 1.65,1.9,120 to 122
"CCOP(=O)(OCC)c1cccc2c(-c3ccccc3)cc(-c3ccccc3OC)nc12 [7d, Diethyl (2-(2-methoxyphenyl)-4-phenylquinolin-8-yl)phosphonate]",12.3 ± 4.1,19.4 ± 1.6,> 50,> 50,11.4 ± 0.62,19.5 ± 2.38,30.1 ± 6.05,1.5,121 to 123
"CCOP(=O)(OCC)c1cccc2c(-c3ccccc3)cc(-c3ccc4ccccc4c3)nc12 [7e, Diethyl (2-(naphthalen-2-yl)-4-phenylquinolin-8-yl)phosphonate]",3.18 ± 0.27,1.33 ± 0.76,48.1 ± 6.39,> 50,20.4 ± 1.57,20.4 ± 5.62,51.6 ± 1.52,2.5,135 to 137
"CCOP(=O)(OCC)c1cccc2c(-c3ccccc3)cc(-c3cccc4ccccc34)nc12 [7f, Diethyl (2-(naphthalen-1-yl)-4-phenylquinolin-8-yl)phosphonate]",2.66 ± 0.16,4.54 ± 0.52,35.7 ± 3.13,> 50,20.6 ± 2.19,19.7 ± 2.39,12.2 ± 1.49,0.6,140 to 142
CCOP(=O)(OCC)c1cccc2c(-c3ccc(F)cc3)cc(-c3ccccc3)nc12 [7g],2.27 ± 0.32,9.29 ± 1.79,24.4 ± 3.46,> 50,16.1 ± 1.94,11.9 ± 5.17,33.9 ± 7.98,2.8,172 to 174
"CCOP(=O)(OCC)c1cccc2c(-c3ccc(F)cc3)cc(-c3ccc(F)cc3)nc12 [7h, Diethyl (2,4-bis(4-fluorophenyl)quinolin-8-yl)phosphonate]",3.07 ± 0.22,9.79 ± 0.59,15.7 ± 1.74,> 50,8.43 ± 0.92,24.2 ± 2.37,20.3 ± 7.49,0.8,121 to 123
"CCOP(=O)(OCC)c1cccc2c(-c3ccc(F)cc3)cc(-c3ccc(F)c(F)c3)nc12 [7i, Diethyl (2-(3,4-difluorophenyl)-4-(4-fluorophenyl)quinolin-8-yl)phosphonate]",4.64 ± 0.3,37.6 ± 9.1,> 50,> 50,6.35 ± 0.16,13.4 ± 5.53,20.6 ± 3.11,1.5,159 to 161
"CCOP(=O)(OCC)c1cccc2c(-c3ccc(C)cc3)cc(-c3ccc(F)cc3)nc12 [7j, Diethyl (2-(4-fluorophenyl)-4-(p-tolyl)quinolin-8-yl)phosphonate]",0.83 ± 0.01,10.2 ± 0.38,> 50,> 50,7.29 ± 0.94,9.8 ± 0.48,14.5 ± 1.56,1.5,139 to 141
"CCOP(=O)(OCC)c1cccc2c(-c3ccc(C)cc3)cc(-c3ccc(F)c(F)c3)nc12 [7k, Diethyl (2-(3,4-difluorophenyl)-4-(p-tolyl)quinolin-8-yl)phosphonate]",2.72 ± 0.37,10.6 ± 1.13,22.3 ± 1.36,> 50,2.59 ± 0.48,26.2 ± 3.65,24.1 ± 7.79,0.9,133 to 135
"CC(C)OP(=O)(OC(C)C)c1cccc2c(-c3ccccc3)cc(-c3ccc(F)cc3)nc12 [7l, Diisopropyl (2-(4-fluorophenyl)-4-phenylquinolin-8-yl)phosphonate]",5.01 ± 2.7,18.7 ± 1.98,10.1 ± 1.26,> 50,9.57 ± 0.4,19.5 ± 2.23,22.1 ± 4.7,1.1,107 to 109
"CC(C)OP(=O)(OC(C)C)c1cccc2c(-c3ccccc3)cc(-c3ccc(F)c(F)c3)nc12 [7m, Diisopropyl (2-(3,4-difluorophenyl)-4-phenylquinolin-8-yl)phosphonate]",18.4 ± 1.4,12.1 ± 1.7,> 50,> 50,11.2 ± 0.74,10.2 ± 1.34,19.8 ± 3.76,1.9,127 to 129
